According to PMC6120666 (The EMBO Journal, 2018):

B1: RIPK2 peptide A13 (residues 28‐42) (peptide, UniProt O43353 28-42, looked up)
peptide: ASGTVSSARHADWRV
notes: 15-mer of human RIPK2, residues 28-42 (β2 and the β2‐β3 loop of the N‐lobe of the kinase domain); also called A13 peptide

Tests used:
NanoLuc-RIPK2 [1] = target: T1, NanoLuc-RIPK2 (Homo sapiens, UniProt O43353); assay: nanoBRET cellular RIPK2 residence time assay in HEKBlue cells; assay type: binding; conditions: t1/2 for probe to engage RIPK2 after washout of inhibitor
T1 construct: host or cells: hNOD2-HEKBlue cells

NOD2/HEKBlue cells = assay: hNOD2-HEKBlue L18-MDP-induced NF-κB reporter assay; assay type: cell-based, human; conditions: Homo sapiens, HEK-Blue; L18-MDP-induced NF-κB reporter; average ± SD of at least three titrations
Protocol: For HEKBlue assay, cells were seeded into clear 96‐well plates at 7.5 × 10^3 cells/well and allowed to attach for 48 h. On the day of the experiment, media was changed to 100 μl of HEKBlue detection media (InvivoGen). Inhibitors were diluted and added in 0.5 μl DMSO 15 min prior to the addition of 1 ng/ml L18‐MDP (InvivoGen). After 8–9 h, absorbance at 620 nm was measured using Victor3V plate reader (Perkin Elmer, Waltham, MA). Values of media‐only wells were subtracted and %inhibition for each compound concentration relative to the DMSO/L18‐MDP‐treated controls was calculated. Inhibition values ± SD were fitted by non‐linear regression using Prism software (GraphPad Software, La Jolla, CA) to calculate IC50 values. For THP1Blue assay, 1 × 10^5 cells were seeded in 200 μl of RPMI media in 96‐well plates and treated with inhibitors in 0.5 μl DMSO for 15 min prior to the addition of 10 μg/ml MDP, 10 ng/ml Pam3CSK4, 10 ng/ml E. coli LPS, or 1 × 10^7 cells/ml heat‐killed L. monocytogenes (InvivoGen) for 24 h. After induction, 20 μl of media was mixed with 180 μl of QUANTI‐Blue reagent (InvivoGen) and incubated at 37°C for 3–4 h, followed by absorbance measurement at 620 nm. IC50 values were calculated as described for HEKBlue assay.
Cayman Chemical Company, Ann Arbor, MI), GSK583 (#HY-100339, MedChem Express, South Brunswick, NJ), WEHI-345 (MedKoo Biosciences, Morrisville, NC), Compound A (CpA, a kind gift from TetraLogic Pharmaceuticals, Malvern, PA). Generation of the CSLP compound series is described in Suebsuwong et al. 2018 (manuscript in preparation). hNOD2-HEKBlue and THP1Blue assays
For HEKBlue assay, cells were seeded into clear 96 well plates at 7.5x10^3 cells/well and allowed to attach for 48 h. On the day of the experiment, media was changed to 100 μl of HEKBlue detection media (InvivoGen). Inhibitors were diluted and added in 0.5 μl DMSO 15 min prior to the addition of 1 ng/ml L18-MDP (InvivoGen). After 8-9 h, absorbance at 620 nm was measured using Victor3V plate reader (Perkin Elmer, Waltham, MA). Values of media-only wells were subtracted and %inhibition for each compound concentration relative to the DMSO/L18-MDP-treated controls were calculated.
Inhibition values + StDev were fitted by non-linear regression using Prism software (GraphPad Software, La Jolla, CA) to calculate IC50 values. For THP1Blue assay, 1x10^5 cells were seeded in 200 μl of RPMI media in 96 well plates and treated with inhibitors in 0.5 μl DMSO 15 min prior to the addition of 10 µg/ml MDP, 10 ng/ml Pam3CSK4, 10 ng/ml E. coli LPS or 1x10^7 cells/ml heat-killed L. monocytogenes (InvivoGen) for 24 h. After induction, 20 μl of media was mixed with 180 μl of QUANTI-Blue reagent (InvivoGen) and incubated at 37 °C for 3-4 h, followed by absorbance measurement at 620 nm. IC50 values were calculated as described for HEKBlue assay. […]

recombinant RIPK2 kinase = target: T2, recombinant RIPK2 kinase (Homo sapiens, UniProt O43353); assay: RIPK2 ADPGlo in vitro kinase assay; assay type: biochemical; conditions: average ± SD of at least three titrations, read-out: IC50, In vitro kinase, RIPK2 ADPGIo
T2 construct: made in house
Text: The BIR2 domains of XIAP and cIAP1 were cloned into the pGEX‐6P1 vector and were expressed in E. coli (BL21) cells as a fusion protein with N‐terminal 6xHis (XIAP BIR2 only) and GST tags. Protein expression was induced with IPTG, and cells were lysed using BugBuster protein extraction reagent (#70921, Merck Millipore) according to manufacturer's instructions. Proteins were purified with the FPLC protein purification system ÄKTA PrimePlus (GE Healthcare Life Sciences) using HisTrap FF column purification followed by gel filtration (HiLoad 26/600 Superdex 75 pg (GE Healthcare Life Sciences)). Collected fractions were stored at −80°C and used for probing of peptide array membranes. Expression and purification of recombinant RIPK1‐3 was performed as previously described (Canning et al, 2015; Najjar et al, 2015). RIPK1‐3 ADPGlo kinase assays using 20 ng/well protein were performed for 2 h at room temperature also as previously described (Canning et al, 2015; Najjar et al, 2015).

NanoLuc-RIPK2 [2] = target: T1, NanoLuc-RIPK2; assay: nanoBRET cellular RIPK2 target engagement assay in HEKBlue cells; conditions: average ± SD of at least three titrations, read-out: IC50, Cellular activity, nanoBRET RIPK2 binding
[3] = system: RIPK2 ubiquitination in U2OS/NOD2 and THP-1 cells; assay: Purification of Ub-conjugates (TUBE pulldown), RIPK2 ubiquitination; assay type: cell-based, human; conditions: U2OS/NOD2 or THP-1 cells, L18-MDP 200 ng/ml, 1 h
Protocol: For co‐immunoprecipitation of HA‐XIAP with RIPK2, transfected and treated cells were lysed in TBS buffer containing 0.5% NP‐40, cOmplete and PhosSTOP inhibitors (Roche) and the lysate was cleared by centrifugation. The lysates were incubated with anti‐HA‐agarose overnight, washed 3× with lysis buffer, and analyzed by immunoblotting. For GST pulldown experiments, U2OS/NOD2 cells were lysed in TBS lysis buffer containing 0.5% NP‐40, cOmplete and PhosSTOP inhibitors (Roche). Cleared lysates were pretreated with kinase inhibitors or DMSO and incubated with GST‐XIAP‐BIR2 bound to Glutathione Sepharose at 4°C overnight. Bound material was washed 3× with lysis buffer or PBS, eluted with 15 mM Glutathione in PBS, and analyzed by immunoblotting. […] The bound material was eluted and analyzed as described above. […]
PBS, eluted with 15 mM Glutathione in PBS and analyzed by immunoblotting. […]

U2OS/NOD2 cells = assay: Intracellular flow cytometry of CXCL8 after L18-MDP; assay type: cell-based, human; conditions: U2OS/NOD2 cells, L18-MDP 200 ng/ml, 4 h
Protocol: Purified material and lysates were analyzed by immunoblotting. […] Numbering below schematic refers to amino acid residues in human RIPK2 and indicate domain boundaries. […] Data information: Data in (A, B, D, H) represent the mean ± SEM of 2–4 independent experiments, each performed in duplicate. […] Two‐way ANOVA was used to determine statistical significance. See also Fig EV1.Source data are available online for this figure.
Dark gray represents areas occupied by RIPK2; white areas indicate empty spaces in CSLP binding pocket. […] Dotted black box indicates region shown for models with CSLP37 and CSLP43. • Molecular docking model of RIPK2 kinase domain in complex with CSLP43 (green) based on RIPK2/CSLP18 structure from (D). […] Two‐way ANOVA was used to determine statistical significance. See also Fig EV2.
GST-BIR2-XIAP as indicated. Intensity quantification of SPOTs was performed using ImageJ software
Dual luciferase reporter assay
Intracellular flow cytometry of CXCL8
for cell death) or vehicle for 24h. Viability was determined using the CellTiter-Glo® luminescent cell
together with Transfection Carrier DNA (Promega).
After addition of Nano-Glo

His6‐GST‐XIAP‐BIR2 D214S = target: T3, His6‐GST‐XIAP‐BIR2 D214S (UniProt P98170 124-242, D214S); assay: peptide or protein array; SPOT assay: selected RIPK2 peptides and their Ala-/Leu-scan variants spotted in triplicate on cellulose, probed with 6xHis-GST-BIR2 of XIAP (WT or D214S), detected with anti-His-HRP, spots quantified with ImageJ; conditions: both partners purified
T3 construct: not restated for the mutant; also called D214S BIR2 domain; D214S mutant; source: E. coli (BL21), purified (HisTrap FF, gel filtration); not shown: His6, N-terminal, kept; GST, N-terminal, kept

Molecule	residence time (NanoLuc-RIPK2 [1]) [min]	IC50 (NOD2/HEKBlue cells) [nM]	IC50 (recombinant RIPK2 kinase) [nM]	IC50 (NanoLuc-RIPK2 [2]) [nM]	RIPK2 ubiquitination after L18-MDP [3]	L18-MDP-induced CXCL8 production (U2OS/NOD2 cells)	binding result (His6‐GST‐XIAP‐BIR2 D214S)
CCCS(=O)(=O)Nc1cc(-c2cc(-c3ccc(N4CCNCC4)cc3)cnc2N)ccc1OC [CSLP18]	66.6	476 ± 96.7	31.6 ± 8.7	578 ± 34.1			
CCCS(=O)(=O)Nc1cc(-c2cc(-c3ccc(N4CCNCC4)cc3)cnc2C)cc(F)c1OC [CSLP53]		2560	1410	> 10000			
CCCS(=O)(=O)Nc1cc(F)cc(-c2cc(-c3ccc(N4CCNCC4)cc3)cnc2N)c1 [CSLP38]	106	740 ± 60.7	39.1 ± 1.5	167 ± 19			
CC(C)(C)S(=O)(=O)c1ccc2nccc(Nc3n[nH]c4ccc(F)cc34)c2c1 [GSK583, 6‐(tert‐Butylsulfonyl)‐N‐(5‐fluoro‐1H‐indazol‐3‐yl)quinolin‐4‐amine, reference compound]					antagonized	inhibited	
B1							binds
ADFGLSKWRMMSLSQ (peptide, UniProt O43353 163-177, looked up, 15-mer of human RIPK2, residues 163-177) [RIPK2 peptide E6 (residues 163–177)]							binds
